Test results as given in US20260007601A1, “IONIZABLE CATIONIC LIPID COMPOUND AND COMPOSITION FOR DELIVERING NUCLEIC ACID AND USE THEREOF” (BEIJING YOUCAREKECHUANG PHARMACEUTICAL TECHNOLOGY CO., LTD., priority 2023, published 2026).

Legend:
[1] = Particle size and polydispersity index (PDI) of nanolipid particles, dynamic light scattering; format: physicochemical; details: LNP formulation prepared from the named cationic lipid, 25° C
Procedure: The particle size and polydispersity index (PDI) were determined by dynamic light scattering method using a Malvern laser particle size analyzer. 10 μL of liposome solution was diluted to 1 mL with RNase-free deionized water and added to a sample pool. Each sample was measured three times. The measurement conditions were: 90° scattering angle, 25° C.

[2] = Encapsulation rate, drug loading concentration and total RNA concentration detection (RiboGreen); format: physicochemical; details: LNP formulation of the named lipid
Excerpt: Encapsulation rate is a key quality attribute of liposomes. It refers to the percentage of drug content encapsulated in the lipid bilayer to the total amount of drug added, which can reflect the degree of drug encapsulation in liposomes. The Chinese Pharmacopoeia stipulates that the encapsulation rate should usually not be less than 80%.
The drug loading capacity is the ratio of the amount of drug in the liposome to the total amount of drug and carrier in the liposome. The drug loading capacity directly affects the clinical application dose of the drug, so the larger the drug loading capacity, the more it can meet clinical needs. The drug loading concentration is proportional to the drug loading capacity, and the relative proportion of the drug loading concentration can represent the relative proportion of the drug loading capacity. The relative proportion of the total RNA concentration can represent the relative proportion of the amount of mRNA carried by the LNP formulation.
1×TE buffer, 0.1% Triton X-100 buffer, and RiboGreen reagent (1:200) and mRNA standard stock solution were prepared.
An appropriate amount of sample was taken and added to an appropriate amount of 1×TE buffer, which was diluted to a solution containing about 2.8 μg of the test sample per 1 mL. Then the sample was added to a 96-well plate, where 50 μL of the diluted test sample or mRNA standard stock solution was added to each well, and then added with 1×TE buffer and 0.1% Triton X-100 buffer. The samples were incubated at 37° C. for 10 minutes, and 100 μL of RiboGreen reagent (1:200) was added to each well of the 96-well plate. The plate was centrifuged, and read using an ELISA reader, and the data was processed.

293T cells [3] = assay: Fluorescence detection of Fluc-mRNA (cell transfection efficiency of LNP formulations); format: cell-based; details: for Relative light unit (RLU): LNP containing 0.3 μg Fluc-mRNA, 24 hours; for Multiples of values that equivalent to YK-201: RLU of YK-201 / RLU of the named lipid; for Multiples of values that equivalent to YK-202: RLU of YK-202 / RLU of the named lipid; for Multiples of values that equivalent to YK-209: RLU of YK-209 / RLU of the named lipid; for Ratio relative to SM-102: RLU of the named lipid / RLU of SM-102, times that of SM-102
Procedure: (§1) Cell recovery and passaging: 293T cells were recovered and cultured in culture dishes to the required cell number.
(§2) Plating: The cells in the culture dish were digested, counted, plated in a 96-well plate at 10,000 cells per well, or in a 12-well plate at 150,000 cells per well, and cultured overnight until the cells adhered to the wall.
(§3) Cell recovery and passage: The method was the same as in Example 3.
(§4) Plating: The method was the same as Example 3.
The LNP formulation containing 0.3 μg Fluc-mRNA (prepared according to Example 4, the LNP formulation carrier components were cationic lipids, neutral lipids, structured lipids and polymer-conjugated lipids at a molar ratio of 49:10:39.5:1.5, and the cationic lipids were cationic lipids listed in Table 1) was added to the cell culture medium of a 96-well plate, and cultured for 24 hours. After that, the corresponding reagents were added according to the instructions of the Gaussia Luciferase Assay Kit, and the fluorescence expression intensity of each well was detected by the IVIS fluorescence detection system. This experiment verified the transfection efficiency of the LNP formulation in the cell, and the specific detection results are shown in Tables 6-9.

293T cells [4] = assay: Cell survival rate assay (CCK-8); format: cell-based; details: LNP containing 1.5 μg Fluc-mRNA, 24 hours, CCK-8
Procedure: as §1, §2, §3, §4
The LNP formulations containing 1.5 μg Fluc-mRNA (prepared according to Example 4, the LNP formulation carrier components are cationic lipids, neutral lipids, structured lipids and polymer-conjugated lipids at a molar ratio of 49:10:39.5:1.5, wherein the cationic lipids are the cationic lipids listed in Table 1) and the Lipofectamine 3000 formulation were added to the cell culture medium of the 96-well plate, and the culture was continued for 24 hours. Then, 10 μL of CCK-8 solution was added to each well, and the culture plate was incubated in the incubator for 1 hour, and the absorbance at 450 nm was measured by a microplate reader.

female BALB/C mice = assay: Mouse in vivo imaging of Fluc-mRNA LNP formulations; design: average radiation intensity (mRNA expression): unit not given here; details: 10 μg Fluc-mRNA LNP intramuscularly
Procedure: The LNP formulation containing 10 μg Fluc-mRNA (prepared according to Example 4) was injected intramuscularly into female BALB/C mice aged 4 to 6 weeks and weighing 17 to 19 g, and the mice were intraperitoneally injected with fluorescent imaging substrates at specific time points (6 h, 24 h, 48 h and 7 d) after administration. The mice moved freely for 5 minutes, and then the average radiation intensity (corresponding to the fluorescence expression intensity) of the protein expressed by the mRNA carried by the LNP in the mice was detected by IVIS Spectrum small animal in vivo imager. The test results are shown in Tables 14 to 17 and FIGS. 12 to 14.

PDI [1] | Particle size [1] | Drug loading concentration [2] | Encapsulation rate [2] | Total RNA concentration [2] | SMILES | Relative light unit (RLU) (293T cells [3]) | Multiples of values that equivalent to YK-201 (293T cells [3]) | Multiples of values that equivalent to YK-202 (293T cells [3]) | Multiples of values that equivalent to YK-209 (293T cells [3]) | Ratio relative to SM-102 (293T cells [3]) | Cell survival rate (293T cells [4]) | average radiation intensity (mRNA expression) (female BALB/C mice; 6 h) | average radiation intensity (mRNA expression) (female BALB/C mice; 24 h) | average radiation intensity (mRNA expression) (female BALB/C mice; 48 h) | average radiation intensity (mRNA expression) (female BALB/C mice; 7 d)
30.4% | 218 nm | 25.78 µg/mL | 94.0% | 27.43 µg/mL | CCCCCCCCCCCOC(=O)CCCCCN(CCCCCCCC(=O)OC(CCCCCCCC)CCCCCCCC)CCN(C)CCNC [YK-222] | 606360 RLU | 46.97 | 49.41 | 34.73 | 0.36 | 33.75% |  |  |  | 
24.4% | 167 nm | 37.80 µg/mL | 88.2% | 42.84 µg/mL | CCCCCCCCCCOC(=O)CCCN(CCCCCC(=O)OCC(CCCCCCCC)CCCCCCCC)CCN(CC)CCO [YK-208] | 3858487 RLU | 7.38 | 7.76 | 5.46 | 2.32 | 46.68% |  |  |  | 
17.7% | 219 nm | 30.02 µg/mL | 68.4% | 43.92 µg/mL | CCCCCCCCCCCOC(=O)CCCCCN(CCCCCCCC(=O)OC(CCCCCCC)CCCCCCC)CCN(CC)CCO [YK-205] | 1029168 RLU | 27.68 | 29.11 | 20.46 | 0.62 | 58.92% |  |  |  | 

Further lines, the compound ahead of its results:

SMILES | PDI [1] | Particle size [1] | Drug loading concentration [2] | Encapsulation rate [2] | Total RNA concentration [2] | Relative light unit (RLU) (293T cells [3]) | Multiples of values that equivalent to YK-201 (293T cells [3]) | Multiples of values that equivalent to YK-202 (293T cells [3]) | Multiples of values that equivalent to YK-209 (293T cells [3]) | Ratio relative to SM-102 (293T cells [3]) | Cell survival rate (293T cells [4]) | average radiation intensity (mRNA expression) (female BALB/C mice; 6 h) | average radiation intensity (mRNA expression) (female BALB/C mice; 24 h) | average radiation intensity (mRNA expression) (female BALB/C mice; 48 h) | average radiation intensity (mRNA expression) (female BALB/C mice; 7 d)
CCCCCCCCC(CCCCCCCC)OC(=O)CCCCCN(CCCCCC(=O)OC(CCCCCCCC)CCCCCCCC)CCN(C)CCNC [YK-224] | 30.3% | 185 nm | 38.81 µg/mL | 98.7% | 39.31 µg/mL | 88020 RLU | 323.59 | 340.35 | 239.25 | 0.05 | 23.47% |  |  |  | 
CCCCCCCCCCOC(=O)CCCN(CCCCCC(=O)OCC(CCCCCCCC)CCCCCCCC)C(=O)SCCCN(C)C [YK-219] | 22.4% | 217 nm | 30.31 µg/mL | 64.2% | 47.23 µg/mL | 1505963 RLU | 18.91 | 19.89 | 13.98 | 0.90 | 58.61% |  |  |  | 
CCCCCCCCCCCOC(=O)CCCCCN(CCCCC(=O)OCC(CCCCCCCC)CCCCCCCC)CCNCC [YK-226] |  |  |  |  |  | 57660 RLU | 493.98 | 519.55 | 365.22 | 0.03 | 27.90% |  |  |  | 
CCCCCCCCC(CCCCCCCC)OC(=O)CCCCCCCN(CCO)CCCCCCCC(=O)OCCC(CCCCCC)CCCCCC [Compound 21, 9-heptadecyl-8-(8-((3-hexylnonyl)oxy)-8-oxooctyl)-((2-hydroxyethyl)amino)octanoate, reference compound] |  |  |  |  |  | 1421028 RLU | 20.04 | 21.08 |  | 0.85 | 69.02% | 600390 | 108000 | 30025 | 6102
